A word on the inhibition: it is the share of the control response that was lost under treatment.

Structures are written as SMILES. Values after ≈ are worked out from the molar mass of the structure shown.

The record followed here is patent publication US3956333A, “1(Or 3)-perfluoroalkyl-3,4-dihydro-2(1H)-isoquinolinecarbonitriles” (Sterling Drug Inc., priority 1975, dated 1976).

For experiment [1], the system named is Staphylococcus aureus. The experiment can be described thus: Antibacterial activity, standard serial dilution technique (MIC). It is filed as cell-based. Conditions: read-out: minimal (bacteriostatic) inhibitory concentration (MIC). The source says: The antibacterial activities for the compounds of formulas I and II and the compound of formula V where R is pentafluoroethyl were established using standard serial dilution techniques as described by Goss and Cimijotti, Applied Microbiology 16, 1414 (1968).

Experiment [2] deals with platelet aggregate (thrombus). The experiment can be described thus: In vivo inhibition of platelet aggregation, modified extracorporeal shunt technique (thrombus deposit weight). Also noted: species or system New Zealand rabbits. The note with it: single dose, 3 hours after medication; for % Inhibition of platelet aggregation (in vivo): P < 0.0005; for x Deposit Weight ± s.d.: mean. The source says: The antithrombotic or platelet aggregation inhibitory effect of the compounds of formulas I and II was further determined by a modified extracorporeal shunt technique in rabbits. Rowntree and Shinoya [J. Exp. Med. 46, 7 (1927)] described a method of extracorporeal circulation for the observation of thrombus formation. Downie et al. [Circulation Res. 12, 441 (1963)] modified this technique in order to study the effects of various chemicals upon the platelet aggregates formed in such a system. The following procedure, a further modification of said technique, was used to determine the antithrombotic activity of the compounds of the invention.
New Zealand rabbits weighing 1.5 to 3.0 kg. each were used for these studies. All animals were dosed orally by stomach tube with the test compound at a given time, e.g., 3, 8, 12, 24, etc. hours, prior to testing the blood samples. Control animals (from 3 to 5 in number for each dose level of compound) were given the vehicle used for solubilizing the compounds tested. All animals were anesthetized with sodium pentobarbital (Pentobrocanal) intravenously, 25-32 mg./kg., and secured to a dissecting board. The right femoral artery was cannulated and connected to a Statham pressure transducer (P 23AC) for continuously measuring arterial blood pressure which was recorded by means of a Grass (Model 7) polygraph.
A longitudinal incision was made in the midcervical region. The jugular vein and the carotid artery on one side were isolated and cannulated with appropriate size catheters filled with saline solution, which were in turn connected via Y-shaped polypropylene connectors establishing the shunt.
The components of the shunt were thoroughly siliconized except for the Y-connector on the arterial side. This connector is weighed prior to running the experiment. A blood sample was withdrawn from the femoral artery to provide a control platelet count. The animal was allowed 10-12 minutes to attain a relatively stable blood pressure level after which the shunt was opened and the blood permitted to flow. The time from the first appearance of blood, in the arterial catheter until its re-entry into the body, via the venous catheter, was measured and recorded, as flow time, which was used to determine the initial rate of flow.
The shunt remained open for a period of twenty minutes. One minute before the end, the femoral catheter was removed from the transducer and a second blood sample was taken. Duplicate platelet counts were made for each sample of blood. The shunt was removed from the animal by pulling out both catheters, arterial and venous, arterial first. The Y-connectors were washed with 10 cc. of saline solution. The arterial Y-connector was separated and dried in an oven overnight at 40°C., then reweighed. The initial weight of the connector was subtracted from the final weight, and the difference is considered to be the mass of the platelet aggregate (thrombus).
(single dose medication), the blood samples having been tested three hours after medication: […]

The subject of experiment [3] is Platelet aggregation induced by ADP. Conditions: Oryctolagus cuniculus, read-out: % Inhibition of platelet aggregation induced by ADP.
The subject of experiment [4] is Platelet aggregation induced by collagen. Conditions: Oryctolagus cuniculus, read-out: % Inhibition of platelet aggregation induced by collagen.

Turning to `FC(F)(F)C(F)(F)C1NCCc2ccccc21` (stereo not shown) [1,2,3,4-tetrahydro-1-(pentafluoroethyl)isoquinoline], the MIC in experiment [1] was approximately 500 µg/mL (≈ 1990 µM).

As for `Cl.NC(=NO)N1CCc2ccccc2C1C(F)(F)C(F)(F)F` (stereo not shown) [Example 1E], the “% Inhibition of platelet aggregation (in vivo)” value in experiment [2] (10 mg/kg oral) turned out to be 17%; in experiment [2] (25 mg/kg oral), 38%; in experiment [2] (50 mg/kg oral) it was 41%. Also, the entries for the “x Deposit Weight ± s.d.” value in experiment [2] (10 mg/kg oral), in experiment [2] (25 mg/kg oral) and in experiment [2] (50 mg/kg oral) were 1.54 ± 0.09, 1.16 ± 0.05 and 1.08 ± 0.08, respectively. Further, in experiment [3], the inhibition at 3000 µM came out at 74.2%. For the same molecule, the inhibition at 100 µM in experiment [4] was determined as 24.3%.

For the molecule `NC(=NO)N1CCc2ccccc2C1C(F)(F)C(F)(F)C(F)(F)F` (stereo not shown) [Example 2E], the figures for the inhibition at 1000 µM in experiment [3] and in experiment [4] were 8.3% and 94.2%, respectively.

With `NC(=NO)N1Cc2ccccc2CC1C(F)(F)F` (stereo not shown) [Example 3E], the inhibition at 3000 µM in experiment [3] was 64.4%. Also, the inhibition at 300 µM in experiment [4] worked out at 67.4%.
